Data on 3 molecules can be found in US8663715B2, “Compositions, products, therapeutic uses and procedures for the production and/or crystallization of extracts of Encelia canescens LAM (coronilla de fraile)” (Naturaleza Y Fe Ldta, priority 2010, dated 2014).

For experiment [1], the system named is CF-1 strain mice. Briefly: Oral analgesia: abdominal twisting induced by acetic acid. It is filed as in vivo. Particulars: extract 200 mg/kg in arabic gum, dose of reference drug not given.
A short description of experiment [2]: Antioxidant evaluation in system lacase-ABTS. The class given is biochemical. The procedure:
In addition, the antioxidant capacity was analyzed using the system lacase-ABTS (2,2-azino-bis-3-ethyl-benzo-thiazolin-6-sulfonic) that allows to establish in a comparative way the oxidation of substrates, denoting of indirect way the antioxidant capacity of a sample (Table 7).

Experiment [3] relates to CF-1 strain mice. Briefly: Topical analgesic activity: tail formalin test. It is filed as in vivo. Particulars: topical 5% solution; from medians of treated and control group. The procedure: The in vivo biological study evaluated the toxicity, oral analgesic activity and topical analgesic activity in the global methanolic extract of Encelia canescens Lam. For these assessments not inbred males CF-1 strain mice were used, whose weight varied between 14 to 20 g and age between 30 to 35 days. In all evaluations, animals were kept in fasting for 12 hours prior to each test with water ad libitum at room temperature.
Each test was carried out with 10 animals, leaving 2 of them as controls, adding these to a “pool” of animal controls, in total were a group of 16 control animals. At the end of the tests, the animals were sacrificed by cervical dislocation, a painless method.
For all tests, the pharmacological effect was calculated using the values of the median, as a measure of central tendency of the data and standard error of the median (SEM) as measure of dispersion.
Results were analyzed by the non-parametric statistical method of Wilcoxon for independent data (Hollander and Wolfe, 1973), considering significant if its p≦0.05.
This test is intended to determine the analgesic activity via topical of global methanol extract (EMG) of Encella canescens Lam. […] Then, the time of licking which makes the mouse at the site of injection for five minutes, was counted. […] The topical analgesic activity was calculated using the following formula. % D=(Cm/Cc)×100 where: % D: percentage of pain. […]

Each structure is given as a SMILES string.

Regarding `COc1ccc2cc([C@H](C)C(=O)O)ccc2c1` [Naproxen Sodium, Naproxen sodium], the “% E percentage of analgesic effect (with median, final)” value in experiment [1] stood at 70%. On to `Cc1c(C)c2c(c(C)c1O)CCC(C)(C(=O)O)O2` (stereo not drawn) [Trolox ®, Trolox], for which, in experiment [2], the “Antioxidant activity IC50” value came to 1970 µg/mL.

For the molecule `CC(C)Cc1ccc(C(C)C(=O)O)cc1` (stereo not drawn) [Ibuprofen], in experiment [3], the “% AAT percentage of the topical analgesic activity (% A 1)” value is recorded as 76.53%.
